In the Kinase Knowledgebase extract (Sharma et al. 2016):

Target: ROCK2 (human) (UniProt O75116)
Experiment: Inhibition of ROCK2 Kinase Activity

ROCK2 (human), sequence (O75116 whole entry, looked up): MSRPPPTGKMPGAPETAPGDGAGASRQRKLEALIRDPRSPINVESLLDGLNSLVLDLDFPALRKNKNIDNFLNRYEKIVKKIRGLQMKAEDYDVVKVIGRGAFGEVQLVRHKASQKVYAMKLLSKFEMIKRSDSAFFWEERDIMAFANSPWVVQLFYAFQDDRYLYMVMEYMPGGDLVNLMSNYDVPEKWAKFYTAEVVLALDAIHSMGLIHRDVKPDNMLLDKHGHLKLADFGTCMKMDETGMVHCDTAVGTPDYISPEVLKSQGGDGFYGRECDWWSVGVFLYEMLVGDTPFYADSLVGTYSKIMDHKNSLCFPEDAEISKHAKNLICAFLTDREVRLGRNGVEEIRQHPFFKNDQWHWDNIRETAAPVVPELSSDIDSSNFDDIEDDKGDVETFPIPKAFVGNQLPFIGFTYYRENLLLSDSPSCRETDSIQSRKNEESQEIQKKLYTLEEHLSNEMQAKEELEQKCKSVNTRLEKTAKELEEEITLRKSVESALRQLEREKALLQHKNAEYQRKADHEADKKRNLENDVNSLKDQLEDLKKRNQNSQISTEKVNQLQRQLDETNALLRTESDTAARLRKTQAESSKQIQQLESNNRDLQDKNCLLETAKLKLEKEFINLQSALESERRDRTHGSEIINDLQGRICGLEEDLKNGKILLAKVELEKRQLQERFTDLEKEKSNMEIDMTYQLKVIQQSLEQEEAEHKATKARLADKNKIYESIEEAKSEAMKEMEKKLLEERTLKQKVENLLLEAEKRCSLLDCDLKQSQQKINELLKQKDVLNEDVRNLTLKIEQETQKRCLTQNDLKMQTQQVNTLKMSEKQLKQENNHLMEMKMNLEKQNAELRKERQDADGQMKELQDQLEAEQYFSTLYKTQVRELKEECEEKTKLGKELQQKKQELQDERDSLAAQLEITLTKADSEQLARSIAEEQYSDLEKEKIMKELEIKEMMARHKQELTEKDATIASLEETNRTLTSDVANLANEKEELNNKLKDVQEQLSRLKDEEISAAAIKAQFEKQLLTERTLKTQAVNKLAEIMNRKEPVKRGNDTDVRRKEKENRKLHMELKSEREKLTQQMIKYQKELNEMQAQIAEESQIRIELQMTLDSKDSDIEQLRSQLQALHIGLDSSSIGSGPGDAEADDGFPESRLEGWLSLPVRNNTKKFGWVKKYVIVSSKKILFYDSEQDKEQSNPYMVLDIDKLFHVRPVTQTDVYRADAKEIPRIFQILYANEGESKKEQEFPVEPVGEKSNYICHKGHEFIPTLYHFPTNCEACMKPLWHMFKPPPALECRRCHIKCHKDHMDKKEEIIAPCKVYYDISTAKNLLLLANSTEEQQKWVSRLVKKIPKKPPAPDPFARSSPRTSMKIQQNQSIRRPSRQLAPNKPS

Structure (SMILES)	IC50 [µM]
CCC(C(=O)NCc1nc(-c2c[nH]c3ncccc23)n[nH]1)c1ccccc1 (stereo not given)	> 5
CC(NC(=O)OC(C)(C)C)C(=O)NCc1nc(-c2c[nH]c3ncccc23)n[nH]1 (stereo not given)	> 5
O=C(NCc1nc(-c2c[nH]c3ncccc23)n[nH]1)c1ccc2c(c1)OCO2	> 5
Cc1cccc(C(=O)NCc2nc(-c3c[nH]c4ncccc34)n[nH]2)c1	> 5
O=C(NCc1nc(-c2ccncc2)n[nH]1)c1cccc(Cl)c1O	≤ 5
O=C(NCc1nc(-c2c[nH]c3ncccc23)n[nH]1)c1ccc(Cl)cc1[N+](=O)[O-]	> 5
COc1ccccc1CCC(=O)NCc1nc(-c2ccncc2)n[nH]1	> 5
O=C(C=Cc1cccc(O)c1)NCc1nc(-c2c[nH]c3ncccc23)n[nH]1	> 5
O=C(NCc1nc(-c2ccncc2)n[nH]1)c1cc(Cl)c(O)c(Cl)c1	> 5
CC(=O)c1cccc(C(=O)NCc2nc(-c3c[nH]c4ncccc34)n[nH]2)c1	> 5
